Measured values published in patent publication US10450356B2, “PRAME derived peptides and immunogenic compositions comprising these” (Academisch Ziekenhuis Leiden H.O.D.N. LUMC, priority 2007, dated 2019).
Where no end group is shown, it is not given here.

Target: T1, 20S proteasomes purified from a B-LCL cell line (immunoproteasomes) (Homo sapiens, UniProt P28062+P28065+P40306)
T1 construct: 20S proteasomes were purified from a B-LCL cell line; endogenous in cells; purified after Groettrup et al. 1995
Test: In vitro proteasome mediated cleavage analysis
Type: biochemical
Set-up: key to Intact in fragment / Intact Fragment: intact epitope found in digestion fragments: (+), present; (-), not present; key to Processing C-term: generation by proteasome-mediated digestion of fragments containing the correct C-terminus: (++) fragments present for >5%; (+) present for <5%; (-) no fragments containing the C-term. were found
Settings: for Processing C-term: generation by proteasome-mediated digestion of fragments containing the correct C-terminus: 1 h digestion; for Intact Fragment: intact epitope found in digestion fragments: after 1 h digestion; for C-term. generation: generation of C-terminus of the epitope after 1 h digestion; for Intact in fragment: intact epitope found in digestion fragments after 1 h digestion
Experimental: 20S proteasomes were purified from a B-LCL cell line as described by Groettrup et al. (J. Biol. Chem. 270:23808-23815; 1995). This cell type is known to contain immunoproteasomes. High LMP2 and 7 content was confirmed by 2-D immuno-blotting. To assess kinetics, digestions were performed with different incubation periods. Peptides (27 mers, 20 μg) were incubated with 1 μg of purified proteasome at 37° C. for 1 h, 4 h and 24 h in 300 μl proteasome digestion buffer as described (Eggers, et al. 1995. J. Exp. Med. 182:1865). Trifluoroacetic acid was added to stop the digestion and samples were stored at −20° C. before mass spectrometric analysis.
Electrospray ionization mass spectrometry was performed on a hybrid quadrupole time-of-flight mass spectrometer, a Q-TOF (Micromass), equipped with an on-line nanoelectrospray interface with an approximate flow rate of 250 nL/min. Injections were done with a dedicated micro/nano HPLC autosampler, the FAMOS (LC Packings). Digestion solutions were diluted five times in water-methanol-acetic acid (95:5:1, v/v/v), and trapped on the precolumn (MCA-300-05-C8; LC Packings) in water-methanol-acetic acid (95:5:1, v/v/v). Washing of the precolumn was done for 3 min to remove the buffers present in the digests. Subsequently, the trapped analytes were eluted with a steep gradient going from 70% B to 90% B in 10 min, with a flow of 250 nl/min (A: water-methanol-acetic acid (95:5:1, v/v/v); B: water-methanol-acetic acid (10:90:1, v/v/v)). This low elution rate allows for a few additional MS/MS experiments if necessary during the same elution. Mass spectra were recorded from mass 50-2000 Da every second. The resolution allows direct determination of the monoisotopic mass, also from multiple charged ions. The peaks in the mass spectrum were searched in the digested precursor peptide using the Biolynx/proteins software (Micromass). The intensity of the peaks in the mass spectra was used to establish the relative amounts of peptides generated by proteasome digestion.

Compound	Processing C-term: generation by proteasome-mediated digestion of fragments containing the correct C-terminus	Intact Fragment: intact epitope found in digestion fragments	C-term. generation	Intact in fragment
CC(C)C[C@H](NC(=O)[C@H](CCCNC(=N)N)NC(=O)[C@H](CC(C)C)NC(=O)[C@@H](NC(=O)[C@@H](N)CC(N)=O)C(C)C)C(=O)N[C@@H](CS)C(=O)N[C@@H](CS)C(=O)N[C@@H](CCCCN)C(=O)N[C@@H](CCCCN)C(=O)O	-	-		
CSCC[C@H](N)C(=O)N[C@@H](CC(C)C)C(=O)N[C@H](C(=O)N[C@@H](CC(=O)O)C(=O)N[C@H](C(=O)N[C@@H](CO)C(=O)N1CCC[C@H]1C(=O)N[C@@H](CCC(=O)O)C(=O)N1CCC[C@H]1C(=O)N[C@@H](CC(C)C)C(=O)O)C(C)C)[C@@H](C)O	-	-		
CSCC[C@H](NC(=O)[C@H](CO)NC(=O)[C@@H]1CCCN1C(=O)[C@H](CCCNC(=N)N)NC(=O)CNC(=O)[C@H](CC(C)C)NC(=O)[C@H](CCC(=O)O)NC(=O)[C@H](CS)NC(=O)[C@H](CC(C)C)NC(=O)[C@@H](N)CC(C)C)C(=O)O	-	-		
CC(C)C[C@H](NC(=O)[C@@H](NC(=O)[C@H](CCC(N)=O)NC(=O)[C@H](CO)NC(=O)[C@H](Cc1c[nH]cn1)NC(=O)[C@H](CCCNC(=N)N)NC(=O)CNC(=O)[C@H](CC(=O)O)NC(=O)[C@H](Cc1ccccc1)NC(=O)[C@H](C)N)[C@@H](C)O)C(=O)O	+ ((+) present for <5%)	+	+ (low abundant (+) present for <5%)	+
CC[C@H](C)[C@H](NC(=O)[C@H](CC(C)C)NC(=O)[C@@H](N)Cc1ccc(O)cc1)C(=O)N[C@@H](CCC(=O)O)C(=O)N[C@@H](CCCCN)C(=O)N[C@H](C(=O)N[C@@H](CCCCN)C(=O)N[C@@H](CCCNC(=N)N)C(=O)N[C@@H](CCCCN)C(=O)O)C(C)C	-	-		
CC(C)C[C@H](NC(=O)[C@H](CCCCN)NC(=O)[C@H](CCCCN)NC(=O)[C@H](CS)NC(=O)[C@H](CS)NC(=O)[C@H](CC(C)C)NC(=O)[C@H](CCCNC(=N)N)NC(=O)[C@H](CC(C)C)NC(=O)[C@@H](N)C(C)C)C(=O)N[C@@H](CCCCN)C(=O)O	-	-		
CC[C@H](C)[C@H](NC(=O)[C@H](CC(=O)O)NC(=O)[C@H](CCC(N)=O)NC(=O)[C@H](CCSC)NC(=O)[C@@H]1CCCN1C(=O)[C@H](CCSC)NC(=O)[C@H](C)NC(=O)[C@H](Cc1ccccc1)NC(=O)[C@@H](NC(=O)[C@@H](N)CCCCN)[C@@H](C)CC)C(=O)O	-	-		
GLSNITHVLY	-	-		
CC[C@H](C)[C@H](NC(=O)[C@@H]1CCCN1C(=O)[C@H](CCC(=O)O)NC(=O)[C@@H]1CCCN1C(=O)[C@H](CC(=O)O)NC(=O)[C@H](Cc1ccc(O)cc1)NC(=O)[C@H](Cc1ccccc1)NC(=O)[C@@H](N)[C@@H](C)O)C(=O)N[C@@H](CC(C)C)C(=O)O	-	-		
CSCC[C@H](NC(=O)[C@@H](NC(=O)[C@H](CC(=O)O)NC(=O)CNC(=O)[C@H](CCC(=O)O)NC(=O)[C@H](CO)NC(=O)[C@@H](N)CC(C)C)C(C)C)C(=O)N[C@@H](Cc1c[nH]cn1)C(=O)N[C@@H](CC(C)C)C(=O)O			+ (low abundant (+) present for <5%)	+
CC(C)C[C@H](NC(=O)[C@H](C)NC(=O)[C@H](CCC(N)=O)NC(=O)[C@H](CC(C)C)NC(=O)[C@H](CS)NC(=O)[C@H](CCC(N)=O)NC(=O)[C@H](CC(C)C)NC(=O)[C@H](CO)NC(=O)[C@@H](N)CC(C)C)C(=O)N[C@@H](Cc1ccc(O)cc1)C(=O)O	-	-		
CC(C)C[C@H](NC(=O)CN)C(=O)N[C@@H](CC(=O)O)C(=O)N[C@H](C(=O)N[C@@H](CC(C)C)C(=O)N[C@@H](CC(C)C)C(=O)N[C@@H](C)C(=O)N[C@@H](CCC(N)=O)C(=O)N[C@@H](CCC(=O)O)C(=O)N[C@H](C(=O)O)C(C)C)C(C)C	-	-		
CC(C)C[C@H](NC(=O)[C@@H](N)CC(C)C)C(=O)N[C@@H](C)C(=O)N[C@@H](CCC(N)=O)C(=O)N[C@@H](CCC(=O)O)C(=O)N[C@H](C(=O)N[C@@H](CCCNC(=N)N)C(=O)N1CCC[C@H]1C(=O)N[C@@H](CCCNC(=N)N)C(=O)N[C@@H](CCCNC(=N)N)C(=O)O)C(C)C	-	-		
CC(C)C[C@H](NC(=O)[C@H](CC(=O)O)NC(=O)[C@H](CC(C)C)NC(=O)[C@@H](NC(=O)[C@H](CCC(N)=O)NC(=O)[C@H](CC(C)C)NC(=O)[C@@H](N)CCCCN)C(C)C)C(=O)N[C@@H](CCCNC(=N)N)C(=O)N[C@@H](CCCCN)C(=O)O	-	-		
CC(C)C[C@H](NC(=O)[C@H](CCC(N)=O)NC(=O)[C@H](CC(=O)O)NC(=O)[C@H](CC(C)C)NC(=O)[C@H](CCCNC(=N)N)NC(=O)CNC(=O)[C@H](CCCNC(=N)N)NC(=O)[C@H](CC(C)C)NC(=O)[C@H](Cc1ccccc1)NC(=O)[C@@H](N)Cc1ccccc1)C(=O)O	-	-		
CC(C)C[C@H](NC(=O)[C@H](CCCNC(=N)N)NC(=O)[C@H](CCC(=O)O)NC(=O)[C@H](CC(C)C)NC(=O)[C@H](Cc1c[nH]cn1)NC(=O)[C@H](CC(C)C)NC(=O)[C@@H](N)[C@@H](C)O)C(=O)N[C@@H](C)C(=O)N[C@@H](Cc1ccc(O)cc1)C(=O)O	-	-		
CSCC[C@H](NC(=O)[C@H](Cc1ccccc1)NC(=O)[C@H](CC(C)C)NC(=O)[C@@H]1CCCN1C(=O)[C@@H]1CCCN1C(=O)[C@H](Cc1ccccc1)NC(=O)[C@@H](N)CC(C)C)C(=O)N[C@@H](C)C(=O)N[C@@H](C)C(=O)N[C@@H](Cc1ccccc1)C(=O)O	++ ((++) fragments present for >5%)		++ (abundant (++) present for >5%)	
CC(C)C[C@H](NC(=O)[C@H](CCC(=O)O)NC(=O)[C@H](CCCNC(=N)N)NC(=O)[C@H](CC(C)C)NC(=O)[C@H](CCCNC(=N)N)NC(=O)[C@H](C)NC(=O)[C@H](Cc1c[nH]cn1)NC(=O)[C@H](CC(C)C)NC(=O)[C@H](Cc1ccc(O)cc1)NC(=O)[C@H](C)N)C(=O)O	+ ((+) present for <5%)	+	+ (low abundant (+) present for <5%)	+
CC(C)C[C@H](NC(=O)[C@H](CC(C)C)NC(=O)[C@H](CCC(N)=O)NC(=O)[C@H](CC(=O)O)NC(=O)[C@H](CC(C)C)NC(=O)[C@H](CCCNC(=N)N)NC(=O)CNC(=O)[C@H](CCCNC(=N)N)NC(=O)[C@H](CC(C)C)NC(=O)[C@@H](N)Cc1ccccc1)C(=O)O	-	-		
CC[C@H](C)[C@H](NC(=O)[C@H](C)NC(=O)[C@H](CC(C)C)NC(=O)[C@H](C)N)C(=O)N[C@@H](C)C(=O)N[C@@H](C)C(=O)N[C@@H](CC(C)C)C(=O)N[C@@H](CCC(=O)O)C(=O)N[C@@H](CC(C)C)C(=O)N[C@@H](CC(C)C)C(=O)O	-	-		
CSCC[C@H](NC(=O)[C@H](CC(C)C)NC(=O)[C@@H](N)C(C)C)C(=O)N[C@@H](CCCCN)C(=O)NCC(=O)N[C@@H](CCC(N)=O)C(=O)N[C@@H](Cc1c[nH]cn1)C(=O)N[C@@H](CC(C)C)C(=O)N[C@@H](Cc1c[nH]cn1)C(=O)N[C@@H](CC(C)C)C(=O)O	-	-		
